The test system of assay [1] is Arabidopsis thaliana plants. In words: SOA1 phenotypic analysis of herbicide-treated Arabidopsis plants. It counts as in vivo.
Assay [2] relates to Arabidopsis thaliana. Description: MOA1 phenotypic profiling of Arabidopsis sprayed with unknown and commercial herbicides. It counts as in vivo.
Assay [3] deals with Arabidopsis thaliana. In words: MOA1 biochemical (metabolite) profiling by LC-MS and GC-MS of sprayed Arabidopsis. The settings on record: MOA1; 20 minutes and 1 hour after spraying.
Assay [4] has as its system Saccharomyces cerevisiae wild type strain BY4743. In words: AF1 metabolite analysis (GC-MS, LC-MS) of yeast treated with antifungal drugs. It counts as cell-based.
Assay [5] has the same test system. In words: AF1 combined gene expression and metabolite data mapped to KEGG reactions and pathways. It counts as cell-based. An excerpt: In AF1, two different technologies were utilized: gene expression analysis (for examination of mRNA expression) and metabolite analysis. […] As noted previously, existing metabolic databases may be helpful in practicing the methods and systems of the present invention, but many databases include limitations that make their use in data analysis and pathway mapping less than straightforward. […] This caveat to KEGG makes it difficult to pinpoint the correct pathway when attempting to link a gene to a specific pathway. […] The pathway score indicates how meaningful the mapping is, or how likely it is to be correctly indicative of the pathway involved in the perturbation under examination. The method provides a pathway score based on perturbation levels of genes and/or compounds and the information content of each gene and/or compound in the pathway, i.e., a pathway score indicates the extent to which other pathways are mapped to a gene/compound. For example, imagine that two genes are perturbed in a particular experiment. One gene maps to only one pathway, giving a high degree of probability that the perturbed pathway is the one identified in the mapping. The second gene maps to three pathways. In the later example, there is only one-third the probability that the pathway identified in the mapping is the one perturbed. The present invention provides a method for calculating the pathway scores, so that more weight is given to a score of a gene or compound that maps to only one pathway than to a score of a gene or compound that maps to multiple pathways. […] Where n=the total number of genes in the pathway; ipath—count=the number of pathways containing a gene; and j=the number of genes in the pathway that are perturbed. Another factor to be considered when weighting a pathway score is the degree of perturbation. Degree of perturbation can be calculated, for example, based on a number of standard deviations from a norm, and included in an equation such as the one shown above, so that not only the number of pathways is taken into account, but also accounts for the amount of gene transcript or compound present as compared to a control. Compounds were also linked to pathways using the KEGG database. […] Of the 676 compounds under consideration, 77 were detected in the AF1 samples. […] The multiple mapping feature of KEGG makes it difficult to pinpoint the correct pathway when trying to link a compound to a specific pathway. […] A pathway score calculation is applied to the compounds to account for both information content (number of pathways a compound maps to) and perturbation level. The data were then combined to determine the number of reactions showing an enzyme and at least one compound perturbed, and to determine the number of pathways having at least one enzyme and one perturbed compound perturbed. The results of the analysis are represented in Tables 16 and 17, and were difficult to interpret, illustrating that the ability to draw conclusions from compound mapping to pathways is limited when absent additional data.

`Nc1nc[nH]n1` [Amitrole]: the “characteristic symptoms (phenotypic analysis)” value in assay [1] (herbicide-treated Arabidopsis) is “leaf bleaching and leaf enlargement”. Moreover, in assay [1] (three-week-old Arabidopsis treated with herbicide, phenotypes shown in FIG. 12), the “Symptom Class” value is on record as 2. Also, the “phenotype observed” value with Arabidopsis thaliana [2] is “exhibited chlorosis and not true bleaching”.
Consider `CCSC(=O)N(CC(C)C)CC(C)C` [Butylate], for which the “phenotype observed” value in the assay with Arabidopsis thaliana [2] was “neither showed a strong herbicidal phenotype”. For the same molecule, the “commonly regulated (putative stress-related) metabolites” value in the assay on Arabidopsis thaliana [3] was “neither butylate nor chlorpropham treatment resulted in many changes in these commonly regulated metabolites”.
The like results for `CC(C)OC(=O)Nc1cccc(Cl)c1` [Chloropropham] were, in that order, “neither showed a strong herbicidal phenotype” and “neither butylate nor chlorpropham treatment resulted in many changes in these commonly regulated metabolites”.
As for `CC(=O)N1CCN(c2ccc(OCC3COC(Cn4ccnc4)(c4ccc(Cl)cc4Cl)O3)cc2)CC1` (stereo not shown) [Ketoconazole], the “# Compounds perturbed” value in assay [4] (P < 0.1, yeast, 2×MIC, two hours) amounted to 15. Moreover, in assay [5], the “Number of Reactions Having an Enzyme and at Least One Compound Perturbed” value was determined as 21.
`CC[C@@H]([C@H](C)O)n1ncn(-c2ccc(N3CCN(c4ccc(OC[C@@H]5CO[C@@](Cn6cncn6)(c6ccc(F)cc6F)C5)cc4)CC3)cc2)c1=O` [Posaconazole]: the “Fold Change of ornithine3” value in assay [4] (platform GC, p-Value 0.965157424) is given as 0.041. Besides, in assay [4] (platform LC, p-Value 1), the “Fold Change of phosphoenolpyruvate” value turned out to be 0. Besides, in assay [4] (platform nLC, p-Value 1), the “Fold Change of NacetylDglucosamine” value was found to be 0, the “Fold Change of NacetylLornithine” value is given as 0, the “Fold Change of orotic acid” value is reported as 0 and the “Fold Change of phenylpyruvic acid” value was 0. Moreover, in assay [4] (platform nLC, p-Value 1), the “Fold Change of phosphoenolpyruvate” value came out at 0, the “Fold Change of pinitol” value is 0, the “Fold Change of retinoic acid” value is reported as 0 and the “Fold Change of salicylic/HObenzoic” value is on record as 0. In assay [4] (platform nLC, p-Value 1), the “Fold Change of shikimic acid” value is 0, the “Fold Change of sinapinic acid” value worked out at 0, the “Fold Change of thymine” value came out at 0 and the “Fold Change of urocanic acid” value is 0. In addition, in assay [4] (platform nLC, p-Value 1), the “Fold Change of xanthosineDiH2O” value turned out to be 0 and the “Fold Change of zeatin” value is reported as 0. In assay [4] (platform pLC, p-Value 1), the “Fold Change of NacetylLglucosamine” value is 0, the “Fold Change of NacetylLglutamate” value is 0, the “Fold Change of niacinamide” value worked out at 0 and the “Fold Change of nopaline” value came out at 0. Besides, in assay [4] (platform pLC, p-Value 1), the “Fold Change of progesterone” value turned out to be 0, the “Fold Change of riboflavin” value is recorded as 0, the “Fold Change of sugar-phosphate” value amounted to 0 and the “Fold Change of thiamine” value is on record as 0. In assay [4] (platform pLC, p-Value 1), the “Fold Change of thymine” value turned out to be 0, the “Fold Change of tryptophan” value was found to be 0, the “Fold Change of uric acid” value was 0 and the “Fold Change of urocanic acid” value is 0. Moreover, in assay [4] (platform pLC, p-Value 1), the “Fold Change of xanthosine(diH2O)” value is listed as 0 and the “Fold Change of zeatin” value was determined as 0. Also, in assay [5], the “Number of Reactions Having an Enzyme and at Least One Compound Perturbed” value turned out to be 0.

For the origin of these results see patent publication US20040018500A1, “Methods and systems for analyzing complex biological systems” (priority 2001, published 2004).
